Assay results published in US7511133B2, “Adenosine A3 receptor agonists” (King Pharmaceuticals Research and Development, Inc., priority 2003, dated 2009).
Read-outs that look alike come from different tables or passages of the source.

Key:
[1] = target: T1, human A2A adenosine receptors (Homo sapiens, UniProt P29274); experiment: Displacement of [^3H]CGS21680 binding, human A2A adenosine receptors in CHO cells (agonist radioligand)
T1 construct: expressed in transfected cells; host or cells: CHO cells
T1 sequence (P29274 whole entry): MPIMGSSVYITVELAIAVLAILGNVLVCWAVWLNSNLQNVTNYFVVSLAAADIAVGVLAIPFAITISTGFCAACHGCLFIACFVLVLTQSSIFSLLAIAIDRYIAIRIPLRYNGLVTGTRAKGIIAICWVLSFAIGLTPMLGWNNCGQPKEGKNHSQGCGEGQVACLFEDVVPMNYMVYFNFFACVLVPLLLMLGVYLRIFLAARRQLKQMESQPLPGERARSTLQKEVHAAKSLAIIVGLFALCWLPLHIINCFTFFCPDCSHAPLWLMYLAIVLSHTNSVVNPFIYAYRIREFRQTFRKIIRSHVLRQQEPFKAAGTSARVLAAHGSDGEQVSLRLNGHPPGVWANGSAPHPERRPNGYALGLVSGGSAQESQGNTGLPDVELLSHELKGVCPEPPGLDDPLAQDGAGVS

[2] = target: T2, human A2A receptors (Homo sapiens, UniProt P29274); experiment: [^3H] SCH58261 binding to human A2A receptors expressed in CHO cells (antagonist radioligand)
T2 construct: expressed in transfected cells; host or cells: CHO cells
T2 sequence (P29274 whole entry): as above
Description: (§1) Binding assay methodology for the human data with antagonist radioligands. […] Arch. Pharmacol. 357: 1-9, (1998). The cells were grown adherently and maintained in Dulbecco's Modified Eagles Medium with nutrient mixture F12 (DMEM/F12) without nucleosides, containing 10% fetal calf serum, penicillin (100 U/ml), streptomycin (100 μg/ml), L-glutamine (2 mM) and Geneticin (G418, 0.2 mg/ml) at 37° C. in 5% CO2/95% air. Cells were split 2 or 3 times weekly at a ratio between 1:5 and 1:20. For membrane preparation the culture medium was removed and the cells were washed with PBS and scraped off T75 flasks in ice-cold hypotonic buffer (5 mM Tris HCl, 2 mM EDTA, pH 7.4). The cell suspension was homogenized with Polytron and the homogenate was spun for 10 min at 1,000×g. The supernatant was then centrifuged for 30 min at 100,000×g. The membrane pellet was resuspended in 50 mM Tris HCl buffer pH 7.4 (for A3 adenosine receptors: 50 mM Tris HCl, 10 mM MgCl2, 1 mM EDTA) and incubated with 3 UI/ml of Adenosine deaminase for 30 min at 37° C. Then the suspension was frozen at −80° C. HEK 293 cells transfected with the human recombinant A2B adenosine receptor were obtained from Receptor Biology, Inc. (Beltsville, Md., USA).
Binding of [^3H]-SCH 58261 to CHO cells transfected with the human recombinant A2A adenosine receptors (50 μg of protein/assay) was performed using 0.2 ml 50 mM Tris HCl buffer, 10 mM MgCl2 pH 7.4 and at least 6-8 different concentrations of antagonists studied for an incubation time of 30 min at 25° C.

[3] = target: T3, human hA2B receptors (Homo sapiens, UniProt P29275); experiment: [^3H] DPCPX binding to human hA2B receptors expressed in HEK293 cells (antagonist radioligand)
T3 construct: host or cells: HEK 293 cells
T3 sequence (P29275 1-332): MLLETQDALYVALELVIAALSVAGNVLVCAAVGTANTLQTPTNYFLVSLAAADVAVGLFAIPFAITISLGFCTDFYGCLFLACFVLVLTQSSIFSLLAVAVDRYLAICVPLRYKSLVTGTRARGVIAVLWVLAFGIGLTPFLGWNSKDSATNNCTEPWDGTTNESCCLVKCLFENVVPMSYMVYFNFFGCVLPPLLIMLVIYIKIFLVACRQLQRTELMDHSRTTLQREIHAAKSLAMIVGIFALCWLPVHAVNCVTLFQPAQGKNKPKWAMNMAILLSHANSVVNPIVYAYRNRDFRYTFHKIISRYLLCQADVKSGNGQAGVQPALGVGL
Description: as §1
Competition experiments of [^3H]-DPCPX to HEK-293 cells transfected with the human recombinant A^2B adenosine receptor were performed for 60 min at 25° C. in 0.1 ml of 50 mM Tris HCl buffer, 10 mM MgCl2, 1 mM EDTA, 0.1 mM benzamidine pH 7.4, 2 IU/ml adenosine deaminase containing 34 nM [^3H]-DPCPX, diluted membranes (20 μg of protein/assay) and at least 6-8 different concentrations of selected compounds.

[4] = target: T4, human A1 receptors (Homo sapiens, UniProt P30542); experiment: [^3H] DPCPX binding to human A1 receptors expressed in CHO cells (antagonist radioligand)
T4 construct: expressed in transfected cells; host or cells: CHO cells
T4 sequence (P30542 1-326): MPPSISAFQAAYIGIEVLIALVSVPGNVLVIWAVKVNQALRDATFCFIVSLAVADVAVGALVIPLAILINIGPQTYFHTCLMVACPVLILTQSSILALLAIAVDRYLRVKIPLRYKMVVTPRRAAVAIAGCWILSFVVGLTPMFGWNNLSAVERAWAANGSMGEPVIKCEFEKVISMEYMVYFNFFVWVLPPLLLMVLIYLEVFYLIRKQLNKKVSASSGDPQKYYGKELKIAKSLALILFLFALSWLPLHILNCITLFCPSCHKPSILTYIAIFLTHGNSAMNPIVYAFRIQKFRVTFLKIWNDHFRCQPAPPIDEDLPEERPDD
Description: as §1, with “Pharmacol. 357: 1-9, (1998).” left out
Displacement experiments were performed for 120 min at 25° C. in 0.2 ml of 50 mM Tris HCl buffer pH 7.4 containing 1 nM [3H]-DPCPX, diluted membranes (50 μg of protein/assay) and at least 6-8 different concentrations of antagonists studied. Non-specific binding was determined in the presence of 10 μM of CHA and this was always ≦10% of the total binding.

[5] = target: T5, human A3 receptors (Homo sapiens, UniProt P0DMS8); experiment: [^3H] MRE3008F20 binding to human A3 receptors expressed in CHO cells (antagonist radioligand)
T5 construct: expressed in transfected cells; host or cells: CHO cells
T5 sequence (P0DMS8 1-318): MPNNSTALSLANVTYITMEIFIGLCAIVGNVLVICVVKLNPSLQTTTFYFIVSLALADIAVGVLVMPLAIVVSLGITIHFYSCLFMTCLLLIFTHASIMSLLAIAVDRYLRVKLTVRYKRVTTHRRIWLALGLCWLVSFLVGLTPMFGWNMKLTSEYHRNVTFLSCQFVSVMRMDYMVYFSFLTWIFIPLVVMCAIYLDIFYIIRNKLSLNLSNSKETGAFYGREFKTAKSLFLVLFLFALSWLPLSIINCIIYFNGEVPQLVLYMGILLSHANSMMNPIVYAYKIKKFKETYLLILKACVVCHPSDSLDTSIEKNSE
Description: as §1
Binding of [^3H]-MRE 3008F20 to CHO cells transfected with the human recombinant A3 adenosine receptors was performed according to Varani et al., 2000. Competition experiments were carried out in duplicate in a final volume of […] in test tubes containing 1 nM [^3H]-MRE 3008F20, 50 mM Tris HCl buffer, 10 mM MgCl2, 1 mM EDTA pH 7.4 and 100 μl of diluted membranes (50 μg of protein/assay) and at least 8-10 different concentrations of examined antagonists. Incubation time was 120 min at 4° C., according to the results of previous time-course experiments.

[6] = target: T6, human A1 adenosine receptors (Homo sapiens, UniProt P30542); experiment: Displacement of [^3H]CHA binding, human A1 adenosine receptors in CHO cells (agonist radioligand)
T6 sequence (P30542 1-326): T4 sequence (P30542 1-326)

[7] = target: T7, human A3 adenosine receptors (Homo sapiens, UniProt P0DMS8)
T7 sequence (P0DMS8 1-318): T5 sequence (P0DMS8 1-318)

[8] = human A2A, CHO cells, [^3H]CGS21680, read-out: Ki(A2A). Displacement of [^3H]CGS21680 binding to human A2A adenosine receptors exp. in CHO cells.
[9] = human A2A, CHO cells, antagonist radioligand, read-out: [^3H] SCH58261 binding to human A2A receptors expressed in CHO cells Ki
[10] = human A2B, HEK293 cells, antagonist radioligand, read-out: [^3H] DPCPX binding to human hA2B receptors expressed in HEK293 cells Ki
[11] = human A1, CHO cells, antagonist radioligand, read-out: [^3H] DPCPX binding to human A1 receptors expressed in CHO cells Ki
[12] = human A3, CHO cells, antagonist radioligand, read-out: [^3H] MRE3008F20 binding to human A3 receptors expressed in CHO cells Ki

Row | Ki [1, 8] [nM] | Ki [2, 9] [nM] | Ki [3, 10] [nM] | melting point [°C] | Ki [4, 11] [nM] | Ki [5, 12] [nM] | Ki [6] [nM] | Ki [7] [nM] | A1/A3 ([7]; ratio Ki(A1)/Ki(A3), agonist radioligands) | Compound | Ki [1] [nM] | Ki [4] [nM] | Ki [2] [nM] | Ki [3] [nM] | Ki [5] [nM]
1 | > 1000 | > 1000 | > 1000 | 204 to 205 | > 1000 | 198 | 725 | 20 | 36.25 | CCNC(=O)[C@H]1O[C@@H](n2cnc3c(NC(=O)Nc4ccc(S(=O)(=O)N5CCOCC5)cc4)ncnc32)C(O)C1O (stereo partly drawn) [Compound 84, 1-Deoxy-1-[6-[[[[4-[(morpholine-1-yl)sulfonyl]phenyl]amino]carbonyl]amino]-9H-purin-9-yl]-N-ethyl-β-D-ribofuranuronamide] |  |  |  |  | 
2 | > 1000 | > 1000 | > 1000 |  | > 1000 |  | 280 |  |  | CCNC(=O)[C@H]1O[C@@H](n2cnc3c(NC(=O)Nc4ccc(S(=O)(=O)Nc5ccc(OC)cc5)cc4)ncnc32)[C@H](O)[C@@H]1O [Compound 88, 1-Deoxy-1-[6-[[[[4-[N-(4-methoxyphenyl)aminosulfonyl]phenyl]-amino]carbo-nyl]amino]-9H-purin-9-yl]-N-ethyl-β-D-ribofuranuronamide] |  |  |  |  | 
3 | > 1000 | > 1000 | > 1000 | 204 to 205 |  | 100 |  | 22 |  | CCNC(=O)[C@H]1O[C@@H](n2cnc3c(NC(=O)Nc4ccc(S(=O)(=O)N5CCCC5)cc4)ncnc32)[C@H](O)[C@@H]1O [Compound 90, 1-Deoxy-1-[6-[[[[4-[(pyrrolidin-1-yl)sulfonyl]phenyl]amino]carbonyl]amino]-9H-purin-9-yl]-N-ethyl-β-D-ribofuranuronamide] |  |  |  |  | 
4 | > 1000 | > 1000 | > 1000 |  | > 1000 | 140 | 415 | 24 |  | CCNC(=O)[C@H]1O[C@@H](n2cnc3c(NC(=O)Nc4ccc(S(=O)(=O)NC5CCCC5)cc4)ncnc32)[C@H](O)[C@@H]1O [Compound 95, 1-Deoxy-1-[6-[[[[4-[N-(cyclopentyl)aminosulfonyl]phenyl]-amino]carbonyl]amino]-9H-purin-9-yl]-N-ethyl-β-D-ribofuranuronamide] |  |  |  |  | 
5 | > 1000 | > 1000 | > 1000 | 181 to 185 |  | 50 |  | 10 |  | C=CCN(C)S(=O)(=O)c1ccc(NC(=O)Nc2ncnc3c2ncn3[C@@H]2O[C@H](C(=O)NCC)[C@@H](O)[C@H]2O)cc1 [Compound 96, 1-Deoxy-1-[6-[[[[4-[N-(allyl)-N-(methyl)amino-sulfonyl]phenyl]amino]carbonyl]amino]-9H-purin-9-yl]-N-ethyl-β-D-ribofuranuronamide] |  |  |  |  | 

Second part, the compound before the results:

Row | Compound | Ki [1, 8] [nM] | Ki [2, 9] [nM] | Ki [3, 10] [nM] | melting point [°C] | Ki [4, 11] [nM] | Ki [5, 12] [nM] | Ki [6] [nM] | Ki [7] [nM] | A1/A3 ([7]; ratio Ki(A1)/Ki(A3), agonist radioligands) | Ki [1] [nM] | Ki [4] [nM] | Ki [2] [nM] | Ki [3] [nM] | Ki [5] [nM]
6 | CCNC(=O)[C@H]1O[C@@H](n2cnc3c(NC(=O)Nc4ccc(S(=O)(=O)N5CCCCC5)cc4)ncnc32)[C@H](O)[C@@H]1O [Compound 83, 1-Deoxy-1-[6-[[[[4-[(piperidin-1-yl)sulfonyl]phenyl]amino]carbonyl]amino]-9H-purin-9-yl]-N-ethyl-β-D-ribofuranuronamide] | > 1000 | > 1000 | > 1000 | 176 to 178 |  |  |  |  |  |  |  |  |  | 
7 | CCNC(=O)[C@H]1O[C@@H](n2cnc3c(NC(=O)Nc4ccc(S(=O)(=O)NCc5ccccc5)cc4)ncnc32)[C@H](O)[C@@H]1O [Compound 86, 1-Deoxy-1-[6-[[[[4-[N-(benzyl)aminosulfonyl]phenyl]amino]-carbonyl]amino]-9H-purin-9-yl]-N-ethyl-β-D-ribofuranuronamide] | > 1000 | > 1000 | > 1000 |  | > 1000 |  | 300 |  |  |  |  |  |  | 
8 | CCNC(=O)[C@H]1O[C@@H](n2cnc3c(NC(=O)Nc4ccc(S(=O)(=O)N(CCCl)CCCl)cc4)ncnc32)[C@H](O)[C@@H]1O [Compound 91, 1-Deoxy-1-[6-[[[[4-[N,N-bis(2-chloroethyl)aminosulfonyl]phenyl]-amino]carbonyl]amino]-9H-purin-9-yl]-N-ethyl-β-D-ribofuranuronamide] |  |  |  |  |  |  | 730 | 23 |  | > 1000 | > 1000 | > 1000 | > 1000 | 120
9 | CCNC(=O)[C@H]1O[C@@H](n2cnc3c(NC(=O)Nc4ccc(S(=O)(=O)NC5CCCCC5)cc4)ncnc32)[C@H](O)[C@@H]1O [Compound 94, 1-Deoxy-1-[6-[[[[4-[N-(cyclohexyl)aminosulfonyl]phenyl]-amino]carbonyl]amino]-9H-purin-9-yl]-N-ethyl-β-D-ribofuranuronamide] | > 1000 | > 1000 | > 1000 | 179 to 183 | > 1000 |  | 350 |  |  |  |  |  |  | 
